Results from US8163737B2 (Vertex Pharmaceuticals Incorporated, priority 2006, dated 2012).

Molecular target: endogenous CGRP receptor (Homo sapiens, UniProt O60894+Q16602)
Assay: CGRP functional antagonism using SK-N-MC-BLA (4C10), β-lactamase transcriptional reporter assay
Assay type: cell-based
Conditions: SK-N-MC (4C10) cells, inhibition of β-lactamase expression in the presence of 200 pM CGRP
Text: Measuring CGRP Functional Antagonism Using SK-N-MC-BLA (4C10):
CGRP functional antagonism was characterized in a cell based transcriptional assay using a recombinant SK-N-MC line. To introduce the transcriptional reporter system, SK-N-MC cell line was transduced with a retroviral vector containing β-lactamase gene downstream of cAMP responsive promoter. The expression of β-lactamase is triggered by cAMP increase that is a downstream event of activation of endogenous CGRP receptor. Single clones were separated using Fluorescent Activated Cell Sorting (FACS) based on CGRP induced β-lactamase activity. β-lactamase activity was measured using a fluorescence energy transfer (FRET) dye, CCF4. […] To evaluate functional antagonist activity of compounds in SK-N-MC (4C10) line, compounds were evaluated for their inhibition of β-lactamase expression in the presence of CGRP.
SK-N-MC (4C10) was cultured in Minimal Essential Media (MEM) (Invitrogen) supplemented with 1 mM non-essential amino acids solution (Invitrogen), 100 units/ml Penicillin-Streptomycin (Invitrogen), 1 mM sodium pyruvate (Invitrogen) and 10% fetal bovine serum. For the β-lactamase assay, low serum, 1% FBS in MEM was used. 30,000 cells were plated into each wells of poly-D-lysine coated 384-well plate (Becton Dickinson) a day prior to the assay. SK-N-MC (4C10) was preincubated with compounds for 30 min before the addition of 200 pM CGRP. The assay was incubated for 3 hours at 37° C. to allow β-lactamase expression. CCF4 dye was added and incubated for 2 hours at room temperature. […] Curve fitting and IC50 calculation were carried about using MOD3.

Sequence of endogenous CGRP receptor (Q16602 23-461): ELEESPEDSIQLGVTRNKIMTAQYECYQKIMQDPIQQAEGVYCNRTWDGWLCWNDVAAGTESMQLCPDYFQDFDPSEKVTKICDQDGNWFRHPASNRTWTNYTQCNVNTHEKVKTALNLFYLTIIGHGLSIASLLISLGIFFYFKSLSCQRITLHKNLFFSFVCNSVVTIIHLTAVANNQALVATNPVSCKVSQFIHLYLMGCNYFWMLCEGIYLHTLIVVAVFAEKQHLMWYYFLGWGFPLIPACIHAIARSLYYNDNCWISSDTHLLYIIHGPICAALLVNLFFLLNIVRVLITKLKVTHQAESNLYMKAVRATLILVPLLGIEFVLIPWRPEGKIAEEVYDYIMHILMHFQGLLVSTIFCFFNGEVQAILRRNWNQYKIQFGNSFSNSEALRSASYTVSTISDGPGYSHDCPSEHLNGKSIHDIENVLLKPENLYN
Sequence of endogenous CGRP receptor (O60894 27-148): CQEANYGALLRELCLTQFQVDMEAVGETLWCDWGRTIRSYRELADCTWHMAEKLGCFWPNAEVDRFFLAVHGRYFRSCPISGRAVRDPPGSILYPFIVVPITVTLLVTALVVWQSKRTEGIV

| IC50 [nM] | Compound |
| --- | --- |
| < 1000 | O=C(CC1SC(c2ccccc2)N(CC2CC2)C1=O)N1CCC(N2CCc3ccccc3NC2=O)CC1 (stereo not shown) [Compound 138] |
| 1000 to 5000 | COc1cccc(C2SC(CC(=O)N3CCC(N4Cc5ccccc5NC4=O)CC3)C(=O)N2CCC(C)C)c1 (stereo not shown) [Compound 139] |
| > 5000 | CC(=O)C1(c2ccccc2)CCN(C(=O)CC2SC(c3ccccc3)N(CCC(C)C)C2=O)CC1 (stereo not shown) [Compound 141] |
| > 5000 | CC(=O)Nc1ccc(C)cc1C1(O)CCN(C(=O)CC2SC(c3ccccc3)N(CCC(C)C)C2=O)CC1 (stereo not shown) [Compound 143] |
| > 5000 | CCC1SC(CC(=O)N2CCC(n3cc(-c4ccccc4)[nH]c3=O)CC2)C(=O)N1CC1CC1 (stereo not shown) [Compound 146] |
| < 1000 | CCC(CC)C1SC(CC(=O)N2CCC(N3Cc4ccccc4NC3=O)CC2)C(=O)N1CCC(C)C (stereo not shown) [Compound 151] |
| < 1000 | CC(C)CCN1C(=O)C(CC(=O)N2CCC(N3CCc4ccccc4NC3=O)CC2)SC1c1ccccc1N(C)C (stereo not shown) [Compound 152] |
| < 1000 | CC(C)(C)CCN1C(=O)C(CC(=O)N2CCC(N3Cc4ccccc4NC3=O)CC2)SC12CCCCCC2 (stereo not shown) [Compound 154] |
| < 1000 | CC(C)CCN1C(=O)C(CC(=O)N2CCC(N3CCc4ccccc4NC3=O)CC2)SC1c1ccc(F)c(F)c1 (stereo not shown) [Compound 155] |
| < 1000 | CC(C)CCN1C(=O)C(C(C)C(=O)N2CCC(N3Cc4ccccc4NC3=O)CC2)SC1c1ccccc1 (stereo not shown) [Compound 156, 3-(1-(2-(3-Isopentyl-4-oxo-2-phenylthiazolidin-5-yl)propanoyl)piperidin-4-yl)-3,4-dihydroquinazolin-2(1H)-one] |
| > 5000 | CC(=O)N1CCC2(CCN(C(=O)CC3SC(c4ccccc4)N(CCC(C)C)C3=O)CC2)c2ccccc21 (stereo not shown) [Compound 157] |
| 1000 to 5000 | CC(C)CCN1C(=O)C(CC(=O)N2CCC(N3Cc4ccccc4NC3=O)CC2)SC1c1ccc(Cl)cc1 (stereo not shown) [Compound 158] |
| < 1000 | CN1CCN(c2ccccc2[C@@H]2SC(CC(=O)N3CCC(n4c(=O)[nH]c5ccccc54)CC3)C(=O)N2CCC(C)(C)C)CC1 (stereo partly shown) [Compound 161] |
| 1000 to 5000 | O=C(CC1SC(c2ccccc2F)N(CC2CCCCC2)C1=O)N1CCC(N2CCc3ccccc3NC2=O)CC1 (stereo not shown) [Compound 164] |
| < 1000 | CC(C)CCN1C(=O)C(CC(=O)N2CCC(N3Cc4ccccc4NC3=O)CC2)SC1c1c(F)cccc1Cl (stereo not shown) [Compound 166] |
| > 5000 | CC(C)CCN1C(=O)C(CC(=O)N2CCC3(CCc4ccccc43)CC2)SC1c1ccccc1 (stereo not shown) [Compound 167] |
| 1000 to 5000 | CC(C)(C)CCN1C(=O)C(CC(=O)N2CCC(N3Cc4ccccc4NC3=O)CC2)SC1c1cccc2cc[nH]c12 (stereo not shown) [Compound 168] |
| 1000 to 5000 | CCN1C(=O)C(CC(=O)N2CCC(N3Cc4ccccc4NC3=O)CC2)SC1c1ccccc1 (stereo not shown) [Compound 177] |
| 1000 to 5000 | COC(=O)[C@@H](CC(C)C)N1C(=O)C(CC(=O)N2CCC(N3Cc4ccccc4NC3=O)CC2)SC1c1ccccc1 (stereo partly shown) [Compound 178] |
| < 1000 | Cc1cc(C2SC(CC(=O)N3CCC(N4Cc5ccccc5NC4=O)CC3)C(=O)N2CCC(C)(C)C)cc2cn[nH]c12 (stereo not shown) [Compound 179] |
| 1000 to 5000 | CC(C)CCN1C(=O)C(CC(=O)N2CCC(N3CCc4ccccc4NC3=O)CC2)SC1[C@H](C)c1ccccc1 (stereo partly shown) [Compound 180] |

| IC50 [nM] | Compound |
| --- | --- |
| < 1000 | CC1=CCCC(C)C1C1SC(CC(=O)N2CCC(N3CCc4ccccc4NC3=O)CC2)C(=O)N1CCC(C)C (stereo not shown) [Compound 181] |
| < 1000 | O=C(CC1SC(c2ccccc2)N(Cc2cccnc2)C1=O)N1CCC(N2CCc3ccccc3NC2=O)CC1 (stereo not shown) [Compound 185] |
| > 5000 | CC(C)CCN1C(=O)C(CC(=O)N2CCC3(CC2)C(=O)NCN3c2ccccc2)SC1c1ccccc1 (stereo not shown) [Compound 186] |
| > 5000 | O=C(CC1SC(Cc2ccccc2)N(CC(F)(F)F)C1=O)N1CCC(n2cc(-c3ccccc3)[nH]c2=O)CC1 (stereo not shown) [Compound 189] |
| < 1000 | O=C(CC1SC(c2ccccc2)N(CCC(F)(F)F)C1=O)N1CCC(N2Cc3ccccc3NC2=O)CC1 (stereo not shown) [Compound 191] |
| < 1000 | CCCC1SC(CC(=O)N2CCC(N3Cc4ccccc4NC3=O)CC2)C(=O)N1CCC(C)C (stereo not shown) [Compound 192] |
| 1000 to 5000 | CC(C)CCN1C(=O)C(CC(=O)N2CCC(N3Cc4ccccc4NC3=O)CC2)SC12CCOCC2 (stereo not shown) [Compound 196] |
| > 5000 | CC(C)CCN1C(=O)C(CC(=O)N2CCC(N3Cc4ccccc4NC3=O)CC2)SC1c1ccc(C(C)(C)C)cc1 (stereo not shown) [Compound 197] |
| > 5000 | CC(C)CCN1C(=O)C(CC(=O)N2CCC(NC(=O)Nc3ccccn3)CC2)SC1c1ccccc1 (stereo not shown) [Compound 200] |
| 1000 to 5000 | CC(C)CCN1C(=O)C(CC(=O)N2CCC(N3Cc4ccccc4NC3=O)CC2)SC1C1CCOCC1 (stereo not shown) [Compound 201] |
| 1000 to 5000 | COC(=O)[C@H](CC(C)C)N1C(=O)C(CC(=O)N2CCC(N3Cc4ccccc4NC3=O)CC2)SC1c1ccccc1 (stereo partly shown) [Compound 205] |
| < 1000 | Cc1cc(C2SC(CC(=O)N3CCC(N4CCc5ccccc5NC4=O)CC3)C(=O)N2CCC(C)C)cc2cn[nH]c12 (stereo not shown) [Compound 206] |
| < 1000 | CCC(CC)C1SC(CC(=O)N2CCC(N3CCc4ccccc4NC3=O)CC2)C(=O)N1CCC(C)C (stereo not shown) [Compound 207] |
| < 1000 | CC(C)CCN1C(=O)C(CC(=O)N2CCC(N3Cc4ccccc4NC3=O)CC2)SC1C1CCCOC1 (stereo not shown) [Compound 209] |
| < 1000 | O=C(CC1SC(c2c(F)cccc2F)N(CC2CCCCC2)C1=O)N1CCC(N2Cc3ccccc3NC2=O)CC1 (stereo not shown) [Compound 210] |
| 1000 to 5000 | CC(=O)Nc1ccc(C2SC(CC(=O)N3CCC(N4Cc5ccccc5NC4=O)CC3)C(=O)N2CCC(C)C)cc1 (stereo not shown) [Compound 213] |
| 1000 to 5000 | CC(C)CC(CO)N1C(=O)C(CC(=O)N2CCC(N3CCc4ccccc4NC3=O)CC2)SC1c1ccccc1 (stereo not shown) [Compound 214] |
| < 1000 | CC(C)CCN1C(=O)C(CC(=O)N2CCC(N3CCc4ccccc4NC3=O)CC2)SC1c1ccccc1N1CCCCC1 (stereo not shown) [Compound 215] |
| < 1000 | CC(C)(C)CCN1C(=O)C(CC(=O)N2CCC(N3CCc4ccccc4NC3=O)CC2)SC1c1c(F)cccc1F (stereo not shown) [Compound 217] |
| > 5000 | CCC1SC(CC(=O)N2CCC(n3c(=O)[nH]c4ccccc43)CC2)C(=O)N1CC(F)(F)F (stereo not shown) [Compound 218] |
| 1000 to 5000 | CC(C)CCN1C(=O)C(CC(=O)N2CCC(N3Cc4ccccc4NC3=O)CC2)SC1c1cccc(C(F)(F)F)c1F (stereo not shown) [Compound 219] |

| IC50 [nM] | Compound |
| --- | --- |
| < 1000 | CC(C)CCN1C(=O)C(CC(=O)N2CCC(N3CCc4ccccc4NC3=O)CC2)SC1c1c(F)cccc1Cl (stereo not shown) [Compound 221] |
| < 1000 | Cc1ccc(C2SC(CC(=O)N3CCC(N4Cc5ccccc5NC4=O)CC3)C(=O)N2CCC(C)C)c(C)c1 (stereo not shown) [Compound 222] |
| > 5000 | CC(C)CCN1C(=O)C(CC(=O)N2CCC3(CC2)OC(=O)Nc2ccccc23)SC1c1ccccc1 (stereo not shown) [Compound 223] |
| 1000 to 5000 | COc1ccc(C2SC(CC(=O)N3CCC(N4Cc5ccccc5NC4=O)CC3)C(=O)N2CCC(C)C)cc1OC (stereo not shown) [Compound 228] |
| < 1000 | O=C(CC1SC(c2ccccc2)N(CCc2ccccc2)C1=O)N1CCC(N2CCc3ccccc3NC2=O)CC1 (stereo not shown) [Compound 231] |
| 1000 to 5000 | CC(C)CCN1C(=O)C(CC(=O)N2CCC(N3Cc4ccccc4NC3=O)CC2)SC1c1ccc2c(c1)OCCN2C (stereo not shown) [Compound 232] |
| < 1000 | O=C(CC1SC(c2ccccc2)N(CC(F)(F)C(F)(F)F)C1=O)N1CCC(N2CCc3ccccc3NC2=O)CC1 (stereo not shown) [Compound 233] |
| < 1000 | CC(C)(C)CCN1C(=O)C(CC(=O)N2CCC(N3Cc4ccccc4NC3=O)CC2)SC1c1ccc(F)cc1F (stereo not shown) [Compound 234] |
| 1000 to 5000 | CC(C)(C)CCN1C(=O)C(CC(=O)N2CCC(N3Cc4ccccc4NC3=O)CC2)SC1c1ccccc1N1CCCCC1 (stereo not shown) [Compound 235] |
| 1000 to 5000 | CC(C)C[C@H](CO)N1C(=O)C(CC(=O)N2CCC(N3Cc4ccccc4NC3=O)CC2)SC1c1ccccc1 (stereo partly shown) [Compound 238] |
| < 1000 | CC(C)CCN1C(=O)C(CC(=O)N2CCC(N3CCc4ccccc4NC3=O)CC2)SC1C1CCCOC1 (stereo not shown) [Compound 239] |
| 1000 to 5000 | CC(C)CCN1C(=O)C(CC(=O)N2CCC(N3Cc4ccccc4NC3=O)CC2)SC12C=CC(C)(C)CC2 (stereo not shown) [Compound 241] |
| 1000 to 5000 | CC(C)CCN1C(=O)C(CC(=O)N2CCC(N3Cc4ccccc4NC3=O)CC2)SC1c1ccc(Br)cc1 (stereo not shown) [Compound 242] |
| 1000 to 5000 | COC(=O)[C@@H](CC1CCCCC1)N1C(=O)C(CC(=O)N2CCC(N3CCc4ccccc4NC3=O)CC2)SC1c1ccccc1 (stereo partly shown) [Compound 243] |
| > 5000 | CC(C)CC1SC(CC(=O)N2CCC(N3CCc4ccccc4NC3=O)CC2)C(=O)N1CCc1ccncc1 (stereo not shown) [Compound 245] |
| < 1000 | CC(C)CCN1C(=O)C(CC(=O)N2CCC(N3Cc4ccccc4NC3=O)CC2)SC1c1ccccc1OCc1ccccc1 (stereo not shown) [Compound 246] |
| 1000 to 5000 | CC(C)CCN1C(=O)C(CC(=O)N2CCC(N3CCc4ccccc4NC3=O)CC2)SC1c1cccc(OC(F)(F)C(F)F)c1 (stereo not shown) [Compound 247] |
| < 1000 | CC(C)CCN1C(=O)C(CC(=O)N2CCC(c3cc4ccccc4[nH]c3=O)CC2)SC1c1ccccc1 (stereo not shown) [Compound 249] |
| > 5000 | COCC(C)N1C(=O)C(CC(=O)N2CCC(N3Cc4ccccc4NC3=O)CC2)SC1c1ccccc1 (stereo not shown) [Compound 250] |
